Counter-ions that a name gives are not always drawn. Bounds are passed on as bounds.

The first experiment has as its system lipid peroxidation (brain homogenate). The experiment is described as follows: Inhibitory action of lipid peroxidation in brain homogenate (TBA value). Conditions: 500 μM; rat brain homogenate, 37° C., 30 minutes. Type of experiment: biochemical. The procedure: (1) Inhibitory action of lipid peroxidation (a) Preparation of brain homogenate By use of Wister-strain male rat, brain homogenate was prepared following the procedure as described below. […] Next, a brain perfusion was conducted through the tube with ice-cooled 50 mM phosphate-buffered physiological saline (pH 7.4) hereinafter referred to as "PBS"), and the whole brain was extirpated. After removal of cerebellum, the wet weight of cerebrum was measured and, with addition of 9-fold amount of PBS, it was broken by a Teflon homogenizer in ice-water to be homogenized. After the brain homogenate was subjected to centrifugation at 4° C. at 2200 rpm for 10 minutes, 0.3 ml of the supernatant was apportioned into a light-shielding test tube equipped with a ground stopper, to provide a brain homogenate for evaluation of medicine. (b) Evaluation of test medicine To the brain homogenate produced in (a), 0.6 ml of PBS and 10 μl of ethanolic solution of a test medicine were added (to a final concentration of 500 μM or a concentration at a common ratio of 3 between 0.3 and 100 μm), and the mixture was heated in a warm bath at 37° C. for 30 minutes. […] Also, the same operation was performed by addition of 10 μl of ethanol (blank) in place of 10 μl ethanolic solution of the test medicine for measurement of blank. […] After shaking for about 30 seconds, the mixture was subjected to centrifugation at 3000 rpm for 10 minutes, and the supernatant was provided as a sample for measurement of peroxidized lipid.
With `CC1=NN(c2ccc(C(=O)O)cc2)C(=O)C1` [Compound 21], the “Inhibitory percentage at 500 μM” value was 34.0%.

Consider `CC1=NN(c2ccccc2)C(=O)C1CCO` (stereo not drawn) [Compound 32, 4-(2-Hydroxyethyl)-3-methyl-1-phenyl-2-pyrazolin-5-one], for which the “Inhibitory percentage at 500 μM” value is 62.7%.

Take `CC1=NNC(=O)C1` [Compound 37, 3-Methyl-2-pyrazolin-5-one]: the “Inhibitory percentage at 500 μM” value came to 34.3%.

Consider `CC1=NN(C)C(=O)C1` [Compound 38, 1,3-Dimethyl-2-pyrazolin-5-one], for which the “Inhibitory percentage at 500 μM” value worked out at 45.5%.

Regarding `CC1=NN(CCO)C(=O)C1` [Compound 39, 1-(2-Hydroxyethyl)-3-methyl-2-pyrazolin-5-one], the “Inhibitory percentage at 500 μM” value was found to be 39.2%.

The experiment is the same for the next values; noted with them: inhibition of lipid peroxidation, rat brain homogenate, 37° C., 30 minutes.
One may read the IC50 as the concentration needed to halve the response being measured. Turning to `CC1=NN(c2ccccc2C)C(=O)C1` [Compound 2], it took 392 µM to reach half-maximal inhibition (IC50).

Take `CC1=NN(c2cccc(C)c2)C(=O)C1` [Compound 3]: it took 8 µM to reach half-maximal inhibition (IC50).

`CC1=NN(c2ccc(C)cc2)C(=O)C1` [Compound 4]: inhibition was half-maximal at 6.3 µM (IC50).

`CC1=NN(c2ccc(C)c(C)c2)C(=O)C1` [Compound 5]: half-maximal inhibition (IC50) was put at 6 µM.

`CCCCc1ccc(N2N=C(C)CC2=O)cc1` [Compound 7] returned an IC50 of 2.2 µM.

The compound `CC1=NN(c2cccc(C(F)(F)F)c2)C(=O)C1` [Compound 8] returned an IC50 of 3.9 µM.

For `COc1ccccc1N1N=C(C)CC1=O` [Compound 9], it took 2130 µM to reach half-maximal inhibition (IC50).

As to `COc1cccc(N2N=C(C)CC2=O)c1` [Compound 10], the IC50 is 7.1 µM.

Compound `COc1ccc(N2N=C(C)CC2=O)cc1` [Compound 11] displayed an IC50 of 20.7 µM.

The compound `COc1ccc(N2N=C(C)CC2=O)cc1OC` [Compound 12] showed a 50% inhibitory concentration (IC50) of 23 µM.

In the case of `CCOc1ccc(N2N=C(C)CC2=O)cc1` [Compound 13], the IC50 was 10.3 µM.

Compound `CC1=NN(c2ccccc2Cl)C(=O)C1` [Compound 14] displayed a 50% inhibitory concentration (IC50) of 97.8 µM.

For `CC1=NN(c2cccc(Cl)c2)C(=O)C1` [Compound 15], it took 3.4 µM to reach half-maximal inhibition (IC50).

`CC1=NN(c2ccc(Cl)cc2)C(=O)C1` [Compound 16] showed a half-inhibitory concentration (IC50) of 4 µM.

With `CC1=NN(c2ccc(Cl)c(Cl)c2)C(=O)C1` [Compound 17], 1.6 µM corresponded to half-maximal inhibition (IC50).

On to `CC1=NN(c2ccc(F)cc2)C(=O)C1` [Compound 18], for which the midpoint of inhibition, the IC50, lay at 12.1 µM.

`CC1=NN(c2ccc(C)c(Cl)c2)C(=O)C1` [Compound 19]: the IC50 came out at 4.1 µM.

The compound `CSc1cccc(N2N=C(C)CC2=O)c1` [Compound 20] displayed a half-inhibitory concentration (IC50) of 5.1 µM.

`CCOC(=O)c1ccc(N2N=C(C)CC2=O)cc1` [Compound 22] gave a concentration for half-maximal inhibition (IC50) of 5.2 µM.

Take `CC1=NN(c2ccc([N+](=O)[O-])cc2)C(=O)C1` [Compound 23]: the IC50 was 5.1 µM.

`CCC1=NN(c2ccccc2)C(=O)C1` [Compound 24, 3-Ethyl-1-phenyl-2-pyrazolin-5-one]: the IC50 is 15.1 µM.

In the case of `O=C1CC(c2ccccc2)=NN1c1ccccc1` [Compound 26, 1,3-Diphenyl-2-pyrazolin-5-one], the IC50 stood at 0.08 µM.

Turning to `Cc1ccc(N2N=C(c3ccccc3)CC2=O)cc1` [Compound 27], the IC50 was determined as 1.2 µM.

As for `COc1ccc(N2N=C(c3ccccc3)CC2=O)cc1` [Compound 28], 3 µM corresponded to half-maximal inhibition (IC50).

`O=C1CC(c2ccccc2)=NN1c1ccc(Cl)cc1` [Compound 29] had an IC50 of 1.2 µM.

The compound `CC1=NN(c2ccccc2)C(=O)C1C` (stereo not drawn) [Compound 30, 3,4-Dimethyl-1-phenyl-2-pyrazolin-5-one] registered a half-maximal inhibitory concentration (IC50) of 20.6 µM.

For the compound `CC1=NN(c2ccccc2)C(=O)C1Oc1ccccc1` (stereo not drawn) [Compound 33], 16.2 µM corresponded to half-maximal inhibition (IC50).

In the case of `CC1=NN(c2ccccc2)C(=O)C1Sc1ccccc1` (stereo not drawn) [Compound 34], half-maximal inhibition (IC50) was put at 146 µM.

Turning to `O=C1C2CCCCC2=NN1c1ccccc1` (stereo not drawn) [Compound 35, 3,3a,4,5,6,7-Hexahydro-2-phenyl-2H-indazol-3-one], the IC50 came to 16.4 µM.

On to `CCOC(=O)CC1=NN(c2ccccc2)C(=O)C1` [Compound 36, 3-(Ethoxycarbonylmethyl)-1-phenyl-2-pyrazolin-5-one], for which half-maximal inhibition (IC50) required 32.2 µM.

In turn, `CC1=NN(C2CCCCC2)C(=O)C1` [Compound 40] yielded an IC50 of 24.8 µM.

As for `CC1=NN(Cc2ccccc2)C(=O)C1` [Compound 41], the half-maximal inhibitory concentration (IC50) worked out at 32.9 µM.

Compound `CC1=NN(c2cccc3ccccc23)C(=O)C1` [Compound 42] showed a concentration for half-maximal inhibition (IC50) of 4.9 µM.

`CN1N=C(c2ccccc2)CC1=O` [Compound 43] gave a half-maximal inhibitory concentration (IC50) of 27.2 µM.

`CC1=NN(c2ccccc2O)C(=O)C1` [Compound 44, 1-(2-hydroxyphenyl)-3-methyl-2-pyrazolin-5-one] registered a half-inhibitory concentration (IC50) of 35.5 µM.

`CC1=NN(c2cccc(O)c2)C(=O)C1` [Compound 45] showed a half-inhibitory concentration (IC50) of 21.2 µM.

The compound `CC1=NN(c2ccc(O)cc2)C(=O)C1` [Compound 46] had a 50% inhibitory concentration (IC50) of 23.9 µM.

`CC1=NN(c2ccc(O)c(O)c2)C(=O)C1` [Compound 47]: the half-inhibitory concentration (IC50) worked out at 1.3 µM.

In turn, `O=C1CC(c2ccccc2)=NN1c1ccc(O)cc1` [Compound 48] returned an IC50 of 2.7 µM.

`CC1=NN(c2ccc(CO)cc2)C(=O)C1` [Compound 49, 1-(4-hydroxymethylphenyl)-3-methyl-2-pyrazolin-5-one] yielded an IC50 of 51.8 µM.

As to `CC1=NN(c2ccc(N)cc2)C(=O)C1` [Compound 50, 1-(4-aminophenyl)-3-methyl-2-pyrazolin-5-one dihydrochloride], the half-maximal inhibitory concentration (IC50) amounted to 32.1 µM.

With `O=C1CC=NN1c1ccccc1` [Compound 51, 1-Phenyl-2-pyrazolin-5-one], half-maximal inhibition (IC50) was put at 20.1 µM.

The subject of another experiment is drowsy pattern of electroencephalogram induced by phenobarbital or pentobarbital sodium salt. The experiment is described as follows: Antagonistic action against drowsy pattern of electroencephalogram induced by phenobarbital or pentobarbital sodium salt. Type of experiment: in vivo, Wistar-strain male rat. Conditions: PHB 30 mg/kg intravenous. As for the experimental part: (2) Antagonistic action against drowsy pattern of so electroencephalogram induced by phenobarbital or pentobarbital sodium salt
A Wistar-strain male rat weighing about 400 g was intramasculary administered with 0.6 mg of d-tubocurarine to be immobilized and, while maintaining the rectal temperature at 37° to 38° C. under artificial respiration, the electroencephalogram of the left cerebral frontal cortex was measured and recorded. Also, within the left femoral artery and vein, cannulas for measurement of artery pressure and for administration of medicine were placed, respectively.
As the active ingredient of the present invention, sodium salt of the compound represented by Formula (I) was used and the respective doses of said active ingredient and 30 mg/kg of phenobarbital sodium salt (produced by Iwaki Seiyaku K.K.) (hereinafter called "PHB") or 5 mg/kg of pentobarbital sodium salt (hereinafter called PBT) were each dissolved in physiological saline and administered intravenously in a liquid amount of 1 ml/kg.
The action of the active ingredient of the present invention affecting the cortex electroencephalogram after PHB or PBT administration was investigated as follows; Namely, at the time of 5 minutes or later after PHB or PBT administration when increase of the slow-wave component can be clearly recognized on electroencephalogram, 1, 3, 10, 30 and 100 mg/kg of the active ingredient were administered. To the control group 1 ml/kg of physiological saline was intravenously administered.
Recording and analysis of electroencephalogram were continuously drawn together with artery pressure, heart rate and rectal temperature on the recorder through a multi-purpose monitoring recording device (model RM-85, produced by Nippon Koden K.K.). At the same time, electroencephalogram was recorded in data recorder (model A-65, produced by Sony K.K.), and compressed spectral array analysis was conducted by means of a computer for medical data processing (ATAC-450, produced by Nippon Koden K.K.).
Regarding `CCC1(c2ccccc2)C(=O)NC(=O)NC1=O` [PHB, phenobarbital sodium salt, reference compound], the “persistence of sleep-like electroencephalogram after PHB” value is “at least 3 hours”.

Staying with this experiment, now noted: Rattus norvegicus; intravenous, sodium salt; drowsy EEG after PHB 30 mg/kg or PBT 5 mg/kg; read-out: Antagonistic action at dose or higher.
Consider `CC1=NN(c2ccc(C)cc2)C(=O)C1` [Compound 4], for which the minimal effective dose was ≥ 10 mg/kg.

Take `COc1ccc(N2N=C(C)CC2=O)cc1` [Compound 11]: the minimal effective dose was ≥ 10 mg/kg.

In a further experiment the test system is cerebral ischemia recirculation model. The experiment is described as follows: Protective action in cerebral ischemia recirculation model. Type of experiment: in vivo, Wistar-strain male rat. Conditions: 10 mg/kg into duodenum; 10 min cerebral ischemia (Table 3). Set-up: key to Presence of electroencephalogram restoration / Judgement of action: The case when restoration of electroencephalogram is judged as +; case when not recognized as -. As for the experimental part: (3) Protective action in cerebral ischemia recirculation model
A Wistar-strain male rat weighing about 400 g was administered intramascularly with 0.6 mg of di-tubocurarine to be immobilized and, after a trachea cannulation, the head portion was fixed under artificial respiration on a stereotaxic device. The head skin was cut open, cranial bone was bored, and then bipolar electrode for lead-out of electroencephalogram were placed on the surface of the subdural left frontal cerebral cortex. After the electrode was fixed with the cranial bone by use of dental cement, the animal was held on its back. Next, a cannula for measurement of systemic pressure was placed within the left femoral artery, and a cannula for additional administration of d-tubocurarine within the left femoral vein, respectively. The heart rate was measured and recorded by driving a heart rate meter with the artery wave.
After blood pressure, heart rate and various parameters of electroencephalogram were stabilized, 10 mg/kg of the active ingredient of the present invention prepared in a suspension so as to give 1 ml/kg in 1% tragacanth gum solution was administered directly into duodenum […]. To the control group, only the 1% tragacanth gum solution of the same volume was administered similarly.
Ten to twenty minutes after administration of the medicine, while monitoring the electroencephalogram, blood pressure and heart rate on a multi-purpose monitoring recording device (RM-85 model, produced by Nippon Koden K.K.), the following operations were performed according to the methods shown below for cerebral ischemia loading.
First, ribs were set free at the left costicartilage end to open the chest. Next, cerebral blood flow was blocked for ten minutes by obstructing the left common carotid artery and the left subclavian artery exposed at the aorta originating portion at the same time, and then the brachiocephalic trunk by use of artery clips 30 minutes after administration of the medicine.
Recirculation of cerebral blood flow was effected by releasing at the same time the two artery clips mounted on the respective sites as mentioned above.
The protective action of the medicine for the disorder after recirculation of cerebral ischemia was examined by the presence of restoration of electroencephalogram, and survival time of animal after the recirculation.
During the experiment, the rectal temperature of the animal was maintained at 37° to 38° C. by use of a warming mat. Also, the rectal temperature was continuously drawn on the recorder together with electroencephalogram, femoral artery pressure and heart rate.
On to `CC1=NN(c2ccc(C)cc2)C(=O)C1` [Compound 4], for which the “Presence of electroencephalogram restoration” value is recorded as “+”.

As for `COc1ccc(N2N=C(C)CC2=O)cc1` [Compound 11], the “Presence of electroencephalogram restoration” value is given as “+”.

As for `CCOc1ccc(N2N=C(C)CC2=O)cc1` [Compound 13], the “Presence of electroencephalogram restoration” value is listed as “+”.

`CC1=NN(c2ccc(Cl)cc2)C(=O)C1` [Compound 16]: the “Presence of electroencephalogram restoration” value is reported as “+”.

In the case of `CC1=NN(c2ccccc2)C(=O)C1C` (stereo not drawn) [Compound 30, 3,4-Dimethyl-1-phenyl-2-pyrazolin-5-one], the “Presence of electroencephalogram restoration” value is on record as “+”.

As to `O=C1C2CCCCC2=NN1c1ccccc1` (stereo not drawn) [Compound 35, 3,3a,4,5,6,7-Hexahydro-2-phenyl-2H-indazol-3-one], the “Presence of electroencephalogram restoration” value is “+”.

As to `CC1=NN(C2CCCCC2)C(=O)C1` [Compound 40], the “Presence of electroencephalogram restoration” value is reported as “+”.

The values above are taken from USRE35801E, “Prophylactic and therapeutic composition for circulatory disorders and method of treatment” (priority 1985, dated 1998).
